Data taken from US20230203043A1, “NOVEL IMIDAZOPYRAZINE DERIVATIVES” (Hoffmann-La Roche Inc., priority 2020, published 2023).
Structures can show the parent of a compound that is named as a salt. Where two headings read alike, the source gives them in different places.

System: Acinetobacter baumannii ATCC17961
Assay: Antimicrobial susceptibility testing: 90% growth inhibitory concentration (IC90) determination in Iso-Sensitest broth, OD600 growth
Type: cell-based
Method in brief: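 Growth monitored at 600 nm every 20 min for 16 h at 35±2 °C, inoculum ~5×10^(5) CFU/ml in Iso-Sensitest medium. Compounds in 10-point twofold series, e.g. 50 to 0.097 μM final; 90% inhibitory concentration taken from log-phase growth.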

[1] = Acinetobacter baumannii, ATCC17961, 16 h, strain ATCC 17961, OD600 growth over 16 h, read-out: A. baumannii ATCC 17961 IC90
[2] = Acinetobacter baumannii, ATCC17961, 16 h, read-out: A. baumannii ATCC 17961 IC90 (uM), strain ATCC 17961, OD600 growth over 16 h
[3] = strain ATCC 17961, OD600 growth over 16 h, read-out: A. baumannii ATCC 17961 IC90

| IC90 [1] [µM] | Compound | IC90 [2] [µM] | other results |
| --- | --- | --- | --- |
| 0.209 | C#CCn1cc(-c2cnc3c(Nc4ccc(C(=O)NCCOCCN)c(CC)c4)nccn23)c(C(F)F)n1 [Example 123, N-[2-(2-aminoethoxy)ethyl]-4-[[3-[3-(difluoromethyl)-1-prop-2-ynylpyrazol-4-yl]imidazo[1,2-a]pyrazin-8-yl]amino]-2-ethylbenzamide] | – | – |
| – | CCc1cc(Nc2nccn3c(-c4c[nH]nc4C(F)(F)F)cnc23)ccc1C(=O)NCCNC(=O)CN [Example 691, N-(2-(2-aminoacetamido)ethyl)-2-ethyl-4-((3-(3-(trifluoromethyl)-1H-pyrazol-4-yl)imidazo [1,2-a]pyrazin-8-yl)amino)benzamide formate] | 0.352 | – |
| – | C#CCNC(=O)c1c(C)cc(Nc2nccn3c(-c4cn(CC#C)nc4C(F)(F)F)cnc23)cc1F [Example 40, 2-fluoro-6-methyl-N-prop-2-ynyl-4-[[3-[1-prop-2-ynyl-3-(trifluoromethyl)pyrazol-4-yl]imidazo[1,2-a]pyrazin-8-yl]amino] benzamide] | – | IC90 [3]: 0.196 µM |
| – | N[C@H]1CC[C@H](NC(=O)N2CCN(C(=O)c3ccc(Nc4nccn5c(-c6c[nH]nc6C(F)(F)F)cnc45)cc3Cl)CC2)C1 [Example 292, N-[(1S,3S)-3-aminocyclopentyl]-4-[2-chloro-4-[[3-[3-(trifluoromethyl)-1H-pyrazol-4-yl]imidazo[1,2-a]pyrazin-8-yl]amino]benzoyl] piperazine-1-carboxamide formate] | – | IC90 [3]: 0.354 µM |
| 0.337 | CNC(=O)c1ccc(Nc2nccn3c(-c4c[nH]nc4C(F)(F)F)cnc23)cc1Cl [Example 388, 2-chloro-N-methyl-4-[[3-[3-(trifluoromethyl)-1H-pyrazol-4-yl]imidazo[1,2-a]pyrazin-8-yl]amino]benzamide] | – | – |
| 0.32 | CCc1cc(Nc2nccn3c(-c4cn(CC#N)nc4SC)cnc23)ccc1C(=O)NCCOCCN [Example 831, N-(2-(2-aminoethoxy)ethyl)-4-((3-(1-(cyanomethyl)-3-(methylthio)-1H-pyrazol-4-yl)imidazo[1,2-α]pyrazin-8-yl)amino)-2-ethylbenzamide] | – | – |
| – | CCc1cc(Nc2nccn3c(-c4cn(CC(F)F)nc4C(F)(F)F)cnc23)ccc1C(=O)N1CCC2(CNC2)C1 [Example 555, (4-((3-(1-(2,2-difluoroethyl)-3-(trifluoromethyl)-1H-pyrazol-4-yl)imidazo[1,2-a]pyrazin-8-yl)amino)-2-ethylphenyl)(2,6-diazaspiro[3.4]octan-6-yl)methanone formate] | 0.977 | – |
| 0.19 | CCc1cc(Nc2nccn3c(-c4cn(CC(F)F)nc4C(F)(F)F)cnc23)ccc1C(=O)NCCCNC(=O)[C@@H]1CCCN1 [Example 627, (S)-N-(3-(4-((3-(1-(2,2-difluoroethyl)-3-(trifluoromethyl)-1H-pyrazol-4-yl)imidazo[1,2-a]pyrazin-8-yl)amino)-2-ethylbenzamido)propyl) pyrrolidine-2-carboxamide] | – | – |
| 0.084 | NCCOCCNC(=O)c1ccc(Nc2nccn3c(-c4cn(CCF)nc4C(F)(F)F)cnc23)cc1Cl [Example 250, N-[2-(2-aminoethoxy)ethyl]-2-chloro-4-[[3-[1-(2-fluoroethyl)-3-(trifluoromethyl)pyrazol-4-yl]imidazo[1,2-a]pyrazin-8-yl]amino]benzamide] | – | – |
| – | O=C(NC1CNC1)N1CCN(C(=O)c2ccc(Nc3nccn4c(-c5c[nH]nc5C(F)(F)F)cnc34)cc2Cl)CC1 [Example 394, N-(azetidin-3-yl)-4-[2-chloro-4-[[3-[3-(trifluoromethyl)-1H-pyrazol-4-yl]imidazo[1,2-a]pyrazin-8-yl]amino]benzoyl]piperazine-1-carboxamide formate] | 0.331 | – |
| 0.411 | N#CCn1cc(-c2cnc3c(Nc4ccc(C(=O)N5CC[C@@H](O)C5)c(Cl)c4)nccn23)c(C(F)(F)F)n1 [Example 244, 2-[4-[8-[3-chloro-4-[(3R)-3-hydroxypyrrolidine-1-carbonyl]anilino]imidazo[1,2-a]pyrazin-3-yl]-3-(trifluoromethyl)pyrazol-1-yl]acetonitrile] | – | – |
| – | Cc1cc(Nc2nccn3c(-c4cn(C)nc4C(F)(F)F)cnc23)ccc1C(=O)N1CCN(C(=O)[C@@H]2CCNC[C@H]2O)CC1 [Example 477, formic acid; [4-[(3S,4R)-3-hydroxypiperidine-4-carbonyl]piperazin-1-yl]-[2-methyl-4-[[3-[1-methyl-3-(trifluoromethyl)pyrazol-4-yl]imidazo[1,2-a]pyrazin-8-yl]amino]phenyl]methanone] | 3.24 | – |
| – | O=C(NCCCNC(=O)[C@@H]1C[C@@H](O)CN1)c1ccc(Nc2nccn3c(-c4c[nH]nc4C(F)(F)F)cnc23)cc1Cl [Example 429, (2S,4R)-N-[3-[[2-chloro-4-[[3-[3-(trifluoromethyl)-1H-pyrazol-4-yl]imidazo[1,2-a]pyrazin-8-yl]amino]benzoyl]amino]propyl]-4-hydroxypyrrolidine-2-carboxamide formate] | 1.07 | – |
| 0.147 | CCc1cc(Nc2nccn3c(-c4cn(CC(F)F)nc4C(F)(F)F)cnc23)ccc1C(=O)NCCNC(=O)[C@H]1C[C@H](N)C1 [Example 488, N-(2-((1r,3r)-3-aminocyclobutane-1-carboxamido)ethyl)-4-((3-(1-(2,2-difluoroethyl)-3-(trifluoromethyl)-1H-pyrazol-4-yl)imidazo[1,2-a]pyrazin-8-yl)amino)-2-ethylbenzamide formate] | – | – |
| – | Cc1cc(Nc2nccn3c(-c4cn(C)nc4C(F)(F)F)cnc23)ccc1C(=O)N1CCN(C(=O)[C@H]2C[C@H](O)CN2)CC1 [Example 476, formic acid; [4-[(2R,4S)-4-hydroxypyrrolidine-2-carbonyl]piperazin-1-yl]-[2-methyl-4-[[3-[1-methyl-3-(trifluoromethyl)pyrazol-4-yl]imidazo[1,2-a]pyrazin-8-yl]amino]phenyl]methanone] | 2.01 | – |
| – | CCc1cc(Nc2nccn3c(-c4cn(CCF)nc4C(F)F)cnc23)ccc1C(=O)N1CCN(C(=O)C2CCNCC2)CC1 [Example 770, (4-(4-((3-(3-(difluoromethyl)-1-(2-fluoroethyl)-1H-pyrazol-4-yl)imidazo[1,2-a]pyrazin-8-yl)amino)-2-ethylbenzoyl)piperazin-1-yl)(piperidin-4-yl)methanone formate] | 0.929 | – |
| 0.218 | CCc1cc(Nc2nccn3c(-c4c[nH]nc4C(F)(F)F)cnc23)ccc1C(=O)NCCCNC(=O)[C@@H]1CCCN1 [Example 634, (S)-N-(3-(2-ethyl-4-((3-(3-(trifluoromethyl)-1H-pyrazol-4-yl)imidazo[1,2-a]pyrazin-8-yl)amino)benzamido)propyl) pyrrolidine-2-carboxamide] | – | – |
| – | CCc1cc(Nc2nccn3c(-c4cn(CC(F)F)nc4C(F)(F)F)cnc23)ccc1C(=O)NCCNC(=O)C1CCNCC1 [Example 554, N-(2-(4-((3-(1-(2,2-difluoroethyl)-3-(trifluoromethyl)-1H-pyrazol-4-yl)imidazo[1,2-a]pyrazin-8-yl)amino)-2-ethylbenzamido)ethyl) piperidine-4-carboxamide formate] | 0.198 | – |
| – | CCc1cc(Nc2nccn3c(-c4cn(CC#N)nc4C(F)(F)F)cnc23)ccc1C(=O)NCCNC(=O)CN [Example 620, N-(2-(2-aminoacetamido)ethyl)-4-((3-(1-(cyanomethyl)-3-(trifluoromethyl)-1H-pyrazol-4-yl)imidazo[1,2-a]pyrazin-8-yl)amino)-2-ethylbenzamide formate] | 0.139 | – |
